Results on one compound are retold here after ChEMBL document CHEMBL4602659, “β,β-Dimethylacrylshikonin Induces Apoptosis in Melanoma Cell Lines by NOXA Upregulation” (J Nat Prod, 2020).

Active and inactive are the calls of the source. The calls are words filed in the database; no cut-off is given here.

Assay [1] has as its system SBcl2. In words: Induction of apoptosis in human SBcl2 cells assessed as effect on BAX mRNA expression at IC50 concentration after 6 to 24 hrs by RT-qPCR analysis. The assay is classed as functional, cell-based. Background: Quantitative PCR measures a nucleic acid by following its amplification.
For assay [2], the system named is WM164. Kind of assay: Cytotoxicity against human WM164 cells harboring BRAF V600E mutant assessed as reduction in cell viability after 72 hrs by EZ4U reagent based spectrophotometric method. The conditions noted are these: WM164, 72 h. The assay is classed as functional.
Assay [3] concerns MUGMel2. Kind of assay: Induction of apoptosis in human MUGMel2 cells assessed as up regulation of NOXA protein expression at IC50 concentration after 24 hrs by Western blot analysis. The assay is classed as functional, cell-based. On the technique in general: Immunoblotting shows a protein as a band on a membrane.
In assay [4] the test system is WM164. In words: Induction of apoptosis in human WM164 cells assessed as early apoptotic cells at IC50 concentration after 6 hrs by Annexin V/SYTOX Green based flow cytometric analysis (reference value: 3.01%). The assay is classed as functional. Background: A flow cytometer gives signals particle by particle.
The test system of assay [5] is MUGMel1. Kind of assay: Induction of cell cycle arrest in human MUGMel1 cells assessed as increase in S phase at IC50 concentration after 24 to 48 hrs by propidium iodide staining based flow cytometric analysis. The assay is classed as functional.
Assay [6] concerns SBcl2. In words: Induction of apoptosis in human SBcl2 cells assessed as up regulation of NOXA protein expression at IC50 concentration after 24 hrs by Western blot analysis. The assay is classed as functional, cell-based.
Assay [7] relates to MUGMel1. In words: Induction of apoptosis in human MUGMel1 cells assessed as up regulation of PUMA at IC50 concentration after 6 to 24 hrs by RT-qPCR analysis. The assay is classed as functional, cell-based.
The subject of assay [8] is MUGMel1. Kind of assay: Induction of apoptosis in human MUGMel1 cells assessed as increase in caspase -3 activity at IC50 concentration after 24 hrs by Alexa Fluor 647 antibody based flow cytometric analysis. The assay is classed as functional, cell-based.
In assay [9] the test system is MUGMel1. Kind of assay: Induction of apoptosis in human MUGMel1 cells assessed as effect on BAX protein expression at IC50 concentration after 24 hrs by Western blot analysis. The assay is classed as functional, cell-based.
Assay [10] deals with WM793. Kind of assay: Induction of apoptosis in human WM793 cells assessed as late apoptotic cells at IC50 concentration after 6 hrs by Annexin V/SYTOX Green based flow cytometric analysis (reference value: 0.71%). The assay is classed as functional.
The subject of assay [11] is WM164. In words: Induction of apoptosis in human WM164 cells assessed as effect on PUMA protein expression at IC50 concentration after 24 hrs by Western blot analysis. The assay is classed as functional, cell-based.
Assay [12] concerns SBcl2. In words: Induction of apoptosis in human SBcl2 cells assessed as early apoptotic cells at IC50 concentration after 6 hrs by Annexin V/SYTOX Green based flow cytometric analysis (reference value: 3.77%). The assay is classed as functional.
In assay [13] the test system is WM164. In words: Induction of apoptosis in human WM164 cells assessed as necrotic cells at IC50 concentration after 6 hrs by Annexin V/SYTOX Green based flow cytometric analysis (reference value: 0.81%). The assay is classed as functional.
For assay [14], the system named is WM164. In words: Induction of apoptosis in human WM164 cells treated with scrambled si-RNA assessed as up regulation of NOXA protein expression at IC50 concentration after 24 hrs by Western blot analysis. The assay is classed as functional, cell-based.
The test system of assay [15] is MUGMel1. Kind of assay: Cytotoxicity against human MUGMel1 cells assessed as reduction in cell viability after 72 hrs by EZ4U reagent based spectrophotometric method. The assay is classed as functional. The conditions noted are these: MUGMel1, 72 h.
Assay [16] deals with MUGMel2. In words: Induction of apoptosis in human MUGMel2 cells assessed as necrotic cells at IC50 concentration after 6 hrs by Annexin V/SYTOX Green based flow cytometric analysis (reference value: 0.3%). The assay is classed as functional.
Assay [17] relates to WM793. In words: Induction of apoptosis in human WM793 cells assessed as effect on BAD protein expression at IC50 concentration after 24 hrs by Western blot analysis. The assay is classed as functional, cell-based.
The test system of assay [18] is SBcl2. In words: Induction of apoptosis in human SBcl2 cells assessed as up regulation of PMAIP1 at IC50 concentration after 24 hrs by mRNA sequencing method relative to control. The assay is classed as functional.

Usually IC50 stands for the midpoint of a concentration-inhibition curve. Take `CC(C)=CC[C@@H](OC(=O)C=C(C)C)C1=CC(=O)c2c(O)ccc(O)c2C1=O` [DIMETHYLACRYLSHIKONIN]: the outcome in [1], in [9], in assay [11] and in assay [17] was inactive. Moreover, the IC50 is 2400 nM in assay [2] and 1000 nM in assay [15]. Also, the outcome in assay [3], in assay [5], in [6], in assay [7], in assay [8] and in [14] was Active. Also, the Activity in assay [4] was determined as 2.47%; in [10] it was 5.72%; in assay [12], 16.44%; in assay [13], 0.24%; in assay [16], 0.39%. For the same compound, in assay [18], the “fold change (FC)” value was 1.37.
